Laboratory results taken from patent US9278940B2, “Cyclic amines as bromodomain inhibitors” (Zenith Epigenetics Corp., priority 2012, dated 2016).
Structures can show the parent of a compound that is named as a salt.

Assays:
MV4-11 cells = assay: In vivo efficacy in acute myeloid leukemia xenograft model using MV4-11 cells; design: species or system mouse; conditions: athymic nude mice, MV4-11 xenograft, oral 75 mg/kg b.i.d and 120 mg/kg b.i.d, tumor growth inhibition vs vehicle
Description: MV4-11 cells (ATCC) were grown under standard cell culture conditions and (NCr) nu/nu fisol strain of female mice age 6-7 weeks were injected 5e^6 cells/animal in 100 μl PBS+100 μl Matrigel in lower left abdominal flank. Approximately by day 18 after MV4-11 cells injection, mice were randomized based on tumor volume (L×W×H)/2) of average ^˜120 mm^3. Mice were dosed orally with compound at 75 mg/kg b.i.d and 120 mg/kg b.i.d in EA006 formulation at 10 mL/kg body weight dose volume. Tumor measurements were taken with electronic micro caliper and body weights measured on alternate days beginning from dosing period. The average tumor volumes, percent Tumor Growth Inhibition (TGI) and % change in body weights were compared relative to Vehicle control animals. The means, statistical analysis and the comparison between groups were calculated using student's t-test in Excel.

[1] = In vivo efficacy in experimental autoimmune encephalomyelitis (EAE) model of MS; design: species or system mouse; conditions: female C57Bl/6 mice, MOG35-55/CFA and pertussis toxin, 28 day preventative model
Source text: Experimental autoimmune encephalomyelitis (EAE) is a T-cell-mediated autoimmune disease of the CNS which shares many clinical and histopathological features with human multiple sclerosis (MS). EAE is the most commonly used animal model of MS. […] Cytokines IL-23, IL-6 and IL-17, which are either critical for Th1 and Th17 differentiation or produced by these T cells, play a critical and non-redundant role in EAE development. Therefore, drugs targeting production of these cytokines are likely to have therapeutic potential in treatment of MS.
This study was conducted to assess the potential anti-inflammatory effect of test compounds to inhibit the inflammation and clinical EAE scores of a 28 day preventative mouse model. In this model, EAE was induced by MOG35-55/CFA immunization and pertussis toxin injection in female C57Bl/6 mice.

hIL-6 mRNA = assay: Inhibition of hIL-6 mRNA transcription in LPS-stimulated U937 macrophages; assay type: cell-based, human; design: key: Active: Compounds with an IC50 value less than 30 μM are deemed to be active.; Not Active: Compounds with an IC50 value less than 30 μM are deemed to be active; conditions: U937 cells differentiated with PMA, 1 h pretreatment, LPS 3 h
How it was run: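 U937 cells differentiated to macrophages with 60 ng/mL PMA for 3 days, pretreated 1 h with compound, then stimulated with 1 ug/mL E. coli LPS for 3 h at 37° C. IL-6 mRNA measured by one-step qRT-PCR, Ct normalized to internal control, expressed as fold induction relative to control.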

hMCP-1 mRNA = assay: Inhibition of hMCP-1 mRNA transcription in human PBMCs; assay type: cell-based; design: key: Active: Compounds with an IC50 value less than 30 μM are deemed to be active.; Not Active: Compounds with an IC50 value less than 30 μM are deemed to be active; conditions: Human Peripheral Blood Mononuclear Cells, 3 h
Description: In this example, hMCP-1 mRNA in human peripheral blood mononuclear cells was quantitated to measure the transcriptional inhibition of hMCP-1 when treated with a compound of the present disclosure.
Human Peripheral Blood Mononuclear Cells were plated (1.0×10^5 cells per well) in a 96-well plate in 45 μL RPMI-1640 containing 10% FBS and penicillin/streptomycin. The cells were treated with the test compound (45 μL at 2× concentration), and then the cells were incubated at 37° C. for 3 h before the cells were harvested. At time of harvest, cells were transferred to V-bottom plates and centrifuged at 800 rpm for 5 minutes. Spent media was removed and cell lysis solution (70 μL) was added the cells in each well and incubated for 5-10 min at room temperature, to allow for complete cell lysis and detachment. mRNA was then prepared using the “mRNA Catcher PLUS plate” (Invitrogen), according to the protocol supplied. After the last wash, as much wash buffer as possible was aspirated without allowing the wells to dry. […]
The eluted mRNA isolated was then used in a one-step quantitative real-time PCR reaction, using components of the Ultra Sense Kit together with Applied Biosystems primer-probe mixes. Real-time PCR data was analyzed, normalizing the Ct values for hMCP-1 to an internal control, prior to determining the fold induction of each unknown sample, relative to the control.

c-myc = assay: Inhibition of c-myc expression (mRNA, real-time PCR) in MV4-11 cells; assay type: cell-based; design: key: Active: Compounds with an IC50 value less than 30 μM were deemed to be active.; Not Active: Compounds with an IC50 value less than 30 μM were deemed to be active; conditions: Human AML MV4-11 cells, 3 hours
How it was run: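 MV4-11 cells (2.5×10^4) exposed to compound or 0.1% DMSO for 3 h at 37° C, then lysed for mRNA isolation. c-myc and cyclophilin cDNAs co-amplified by duplex RT real-time PCR. IC50 from dose-response curve.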

COc1cc(OC)c2c(=O)[nH]c(-c3cccc(N4CCN(C(C)C)CC4)n3)nc2c1 [Example 17, 2-(6-(4-Isopropylpiperazin-1-yl)pyridin-2-yl)-5,7-dimethoxyquinazolin-4(3H)-one Hydrochloride]
Active: In vivo activity (MV4-11 cells) | In vivo activity [1] | IL-6 activity (IC50 < 30 μM) (hIL-6 mRNA) | MCP-1 activity (IC50 < 30 μM) (hMCP-1 mRNA) | c-myc activity (IC50 < 30 μM) (c-myc)
